Results from ChEMBL document CHEMBL4400555, “Structure-activity relationships of trichothecenes against COLO201 cells and Cochliobolus miyabeanus: The role of 12-epoxide and macrocyclic moieties” (Bioorg Med Chem Lett, 2019).
Active and inactive are the calls of the source. The calls are words filed in the database; no cut-off is given here.

Key:
[1] = tested on: COLO 201; test: Antiproliferative activity against human COLO201 cells after 24 hrs by WST-1 assay; type: functional, cell-based
[2] = tested on: Bipolaris oryzae; test: Antifungal activity against Cochliobolus miyabeanus 131004 assessed as zone of inhibition at 100 ug/disk after 4 days by paper disk method; type: functional; settings: Bipolaris oryzae, 131004, 96 h; read-out: IZ
[3] = tested on: Bipolaris oryzae; test: Antifungal activity against Cochliobolus miyabeanus 131004 assessed as zone of inhibition at 10 ug/disk after 4 days by paper disk method; type: functional; settings: Bipolaris oryzae, 131004, 96 h; read-out: IZ
[4] = tested on: Bipolaris oryzae; test: Antifungal activity against Cochliobolus miyabeanus 131004 assessed as zone of inhibition at 500 ug/disk after 4 days by paper disk method; type: functional; settings: Bipolaris oryzae, 131004, 96 h; read-out: IZ
[5] = tested on: Bipolaris oryzae; test: Antifungal activity against Cochliobolus miyabeanus 131004 assessed as zone of inhibition at 50 ug/disk after 4 days by paper disk method; type: functional, organism-based

SMILES	IC50 ([1]; colo 201)	IC50 ([1]; Homo sapiens, COLO 201, 24 h)	zone of inhibition at 10 µg/disc [3]	other results
CC1=C[C@H]2O[C@@H]3C[C@H]4OC(=O)/C=C\C=C\[C@@H]5O[C@H](C/C(C)=C/C(=O)OC[C@@]2(CC1)[C@]4(C)[C@]31CO1)O[C@H]5C	82 µM	–	–	–
CC1=C[C@H]2O[C@@H]3C[C@H]4OC(=O)/C=C\C=C\[C@@H]([C@@H](C)O)OCC/C(C)=C/C(=O)OC[C@@]2(CC1)[C@]4(C)[C@]31CO1	47 µM	–	–	–
C=C1[C@H]2C[C@H]3OC(=O)/C=C\C=C\[C@@H]4O[C@@H](O[C@H]4C)[C@H](O)/C(C)=C/C(=O)OC[C@@]4(CCC(C)=C[C@H]4O2)[C@]13C	–	50 µM	0 mm	zone of inhibition at 100 µg/disc [2]: 0 mm; zone of inhibition at 500 µg/disc [4]: 0 mm
C=C1[C@H]2C[C@H]3OC(=O)/C=C\C=C\[C@@H]([C@@H](C)O)OCC/C(C)=C/C(=O)OC[C@@]4(CCC(C)=C[C@H]4O2)[C@]13C	–	51 µM	0 mm	zone of inhibition at 100 µg/disc [2]: 0 mm; zone of inhibition at 500 µg/disc [4]: 0 mm
C=C1[C@H]2C[C@@H](OC(C)=O)[C@]1(C)[C@@]1(C)CCC(C)=C[C@H]1O2	–	420 µM	0 mm	zone of inhibition at 100 µg/disc [2]: 0 mm; zone of inhibition at 500 µg/disc [4]: 0 mm
CC(=O)O[C@@H]1C[C@H]2O[C@@H]3C=C(C)CC[C@]3(C)[C@]1(C)[C@]21CO1	123 µM	–	–	–
CC1=C[C@H]2O[C@@H]3[C@H](O)C[C@](C)([C@@]2(CO)[C@H](O)C1=O)[C@]31CO1 [DEOXYNIVALENOL]	86 µM	–	–	–
CC1=C[C@H]2O[C@@H]3C[C@H]4OC(=O)/C=C\C=C\[C@@H]5O[C@@H](O[C@H]5C)[C@H](O)/C(C)=C/C(=O)OC[C@@]2(CC1)[C@]4(C)[C@]31CO1	42 µM	–	–	–
CC(=O)O[C@H]1C[C@@]23COC(=O)/C=C(\C)C[C@@H]4O[C@@H](C)[C@H](/C=C/C=C\C(=O)O[C@@H]5C[C@@H](O[C@@H]2C=C1C)[C@@]1(CO1)[C@]53C)O4	46 µM	–	–	–
CC1=C[C@H]2O[C@@H]3C[C@H]4OC(=O)/C=C\C=C\[C@@H]5O[C@H](C/C(C)=C/C(=O)OC[C@@]2(C[C@@H]1O)[C@]4(C)[C@]31CO1)O[C@H]5C	51 µM	–	–	–
C=C1[C@H]2CC[C@]1(C)[C@@]1(CO)[C@H](O)C(=O)C(C)=C[C@H]1O2	–	> 700 µM	0 mm	inhibition zone (IZ) [5]: inactive
